Reference: US5656449A, “Neutral unsymmetrical cyanine dyes” (Molecular Probes, Inc., priority 1995, dated 1997)
Where a name gives a salt, the structure may show the parent alone.

What was measured:
NIH 3T3 fibroblasts = experiment: Discrimination of plasma membrane-compromised fibroblasts; format: cell-based; settings: 0.1 or 1.0 μM dye, 5 minutes
Experimental: NIH 3T3 fibroblasts are grown to 75% confluency on 18 mm^2 glass coverslips under standard tissue culture conditions. Coverslips of 3T3 cells are exposed to 0.0001% to 0.1% saponin in HEPES-buffered complete saline solution (HBSS) for 10 minutes at room temperature and subsequently rinsed into HBSS containing 0.1 or 1.0 μM Dye 4100. After incubation for 5 minutes, coverslips are washed with HBSS and mounted on glass microscope slides using glass coverslips as spacers to avoid crushing the cells. The cell fluorescence is observed in the epi-fluorescence microscope using a 40X 0.85 NA objective lens and a standard rhodamine long-pass filter set (546 nm excitation/580 nm emission).

cells = settings: background art; cited from earlier work
[1] = system: rat basophilic leukemia (RBL) cells; experiment: Rate of dye uptake in live cells; format: cell-based; settings: 1 μM-scale dye (3 μL of 1 mM in 3 mL), excited at 490 nm, emission 520 nm; ±~2 sec
Experimental: Dye uptake data were acquired using rat basophilic leukemia (RBL) cells. A suspension of RBL cells at a concentration of 1×10^6 cells/mL is prepared in room-temperature HEPES-buffered Tyrode's buffer containing 0.1% bovine serum albumin. Three μL of a 1 mM dye solution (in DMSO) is added at T=0 to an acrylic, 1 cm pathlength fluorescence cuvette containing 3 mL of the previously prepared RBL cell suspension. The suspension is then stirred continuously with a Teflon-coated magnetic stir bar. The samples are excited at 490 nm, and the fluorescence emission of the suspension at 520 nm is measured at 200 msec intervals for at least 5 minutes. The T1/2 value represents the time, in seconds, required for the fluorescence of the suspension to reach an intensity half-way between basal fluorescence level and peak fluorescence (±~2 sec).

[2] = system: Lambda DNA/Hind III fragments; experiment: Staining of nucleic acids in electrophoresis gels; settings: for detection limit in DNA gel: 1% agarose/TBE minigel, 1 μM dye in 1XTBE, 30 minutes
Experimental: Two separate 1% agarose/TBE (89 mM tris-borate, 2 mM EDTA) minigels are loaded with Lambda DNA/Hind III fragments in a 3-fold serial dilution series of 1 μg, 333 ng, 111 ng, 37.0 ng, 12.4 ng 4.1 ng, 1.4ng. 0.5 ng, 0.2 ng, and 0.05 ng per lane. After the gels are subjected to electrophoresis, the gels are stained with either Dye 510 or Dye 798, as a 1 μM solution in 1XTBE for 30 minutes.
After staining, each gel is illuminated at 254 nm using an epi-illuminator.Gels are photographed with POLAROID 667 black and white print film, Dye 798 stains the gel with a detection limit of 350 pg/band, while Dye 510 stains the gel with a detection limit of 180 pg/band.

Saccharomyces cerevisiae = experiment: Viability determination of cultured yeast; format: cell-based; settings: 1 μM dye, 15 minutes, 490 nm-excited
Experimental: A culture of Saccharomyces cerevisiae is grown in 75 mL of yeast extract-peptone-dextrose (YPD) broth for 2 weeks at 30° C., shaking at 200 rpm in a capped 250 mL Erlenmeyer flask. A 2 mL sample is taken aseptically each day. One mL of this sample is serially diluted in sterile 2% glucose solution and 0.1 mL plated on YPD agar in standard r 100 mm petri dishes. Yeast numbers in the dilution samples having visible turbidity are quantified using a Petroff-Hauser counting chamber. The other 1 mL of the sample is centrifuged in a microcentrifuge at 5,000 rpm for 5 minutes, and resuspended in 100 μL of 1 μM Dye 509 in 2% sterile dextrose solution. After incubation for 15 minutes with the dye, the sample is diluted to 3 mL and the 490 nm-excited […] fluorescence is measured relative to a series of standard fluorescein solutions spanning a 10,000-fold range in fluorescence.

[3] = illumination at 254 nm, 1 μM dye

SMILES: CCN1C(=Cc2cc(-c3ccccc3)nc3ccccc23)Sc2ccccc21 [Dye 4100]
- staining of cells with compromised plasma membranes (NIH 3T3 fibroblasts; 0.0001% to 0.1% saponin): stain brightly
- staining of untreated 3T3 cells (NIH 3T3 fibroblasts): virtually unstained

SMILES: CN1C(=Cc2cc[n+](C)c3ccccc23)Sc2ccccc21 [Thiazole Orange, reference compound]
- staining of cells (cells): readily stains many mammalian cells, yet does not effectively stain some eukaryotic cells
- T1/2 for cell loading [1]: 9 s
- limit of detection in DNA gel ([2]; illumination of 254 nm, comparison dye): 1-2 ng/band

SMILES: CCN1C(=Cc2cc(Sc3ccccc3)nc3ccccc23)Sc2ccccc21 [Dye 509]
- fluorescence at 520 nm with increasing proportion of dead cells (Saccharomyces cerevisiae): increase in fluorescence at 520 nm

SMILES: Cc1cc(C=C2Sc3ccccc3N2C)nc2ccccc12 [Dye 523-1]
- T1/2 for cell loading [1]: 41 s

SMILES: CN1C(=Cc2ccnc3ccccc23)Oc2ccccc21 [Dye 799]
- T1/2 for cell loading [1]: 2 s

SMILES: CN1C(=Cc2ccnc3ccccc23)Sc2ccccc21 [Dye 798, 4-(2,3-dihydro-3-methyl-(benzo-1,3-thiazol-2-yl)-methylidine)-quinolinium tosylate]
- T1/2 for cell loading [1]: 3 s
- detection limit in DNA gel ([2]; illumination at 254 nm): 350 pg/band
- background staining of gel [2, 3]: no observable background staining
- fluorescence colour of stained DNA-containing bands [2, 3]: blue-green fluorescence

SMILES: Cc1cc(C=C2Sc3ccccc3N2C)c2ccccc2n1 [Dye 523-2]
- T1/2 for cell loading [1]: 1 s

SMILES: CCCCc1cc(C=C2Sc3ccccc3N2CC)c2ccccc2n1 [Dye 1268]
- T1/2 for cell loading [1]: 3 s

SMILES: CCN1C(=Cc2ccnc3ccccc23)Sc2ccccc21 [Dye 1266]
- T1/2 for cell loading [1]: 2 s

SMILES: CN1C(=Cc2ccncc2)Sc2ccccc21 [Dye 7101]
- T1/2 for cell loading [1]: 7 s

SMILES: CCN(CC)c1cc(C=C2Sc3ccccc3N2CC)c2ccccc2n1 [Dye 510]
- detection limit in DNA gel ([2]; illumination at 254 nm): 180 pg/band
- fluorescence colour of stained DNA-containing bands [2, 3]: blue-green fluorescence
